Measured values published in patent US12357586B2, “Use of the phytocannabinoid cannabidiol (CBD) in combination with a standard anti-epileptic drug (SAED) in the treatment of epilepsy” (JAZZ PHARMACEUTICALS RESEARCH UK LIMITED, priority 2011, dated 2025).

Assays:
[1] = tested on: pilocarpine-induced seizures; test: pilocarpine model of (temporal lobe) epilepsy; type: in vivo
Experimental: Isolated CBD was injected intra-peritoneally (IP) in the standard vehicle (1:1:18 ethanol:Cremophor:0.9% w/v NaCl) at doses of 50, 100 and 200 mg/kg alongside animals that received vehicle alone at a matched volume. 15 minutes later methylscopolamine (1 mg/kg; to reduce peripheral muscarinic effects of pilocarpine) was administered followed, 45 minutes later by pilocarpine (380 mg/kg, IP) administration.

grand mal patients = conditions: 200-300 mg of cannabidiol plus regular medication; cited from earlier work
epileptic patients = conditions: 200-300 mg of cannabidiol per day in addition to standard antiepileptic drugs; 12 epileptic patients; cited from earlier work
[2] = tested on: seizure frequency in a single patient; conditions: 900-1200 mg of cannabidiol a day for 10 months; cited from earlier work
[3] = tested on: institutionalized children not responding to standard treatment; conditions: 5 institutionalized children not responding to phenobarbital and phenoytin; cited from earlier work
[4] = CBD 100 mg/kg, Phenobarbitol 0 mg/kg
[5] = significance of effect, pilocarpine model
[6] = CBD 0 mg/kg, Phenobarbitol 10 mg/kg
[7] = CBD 0 mg/kg, Phenobarbitol 20 mg/kg
[8] = CBD 0 mg/kg, Phenobarbitol 40 mg/kg

For `C=C(C)[C@@H]1CCC(C)=C[C@H]1c1c(O)cc(CCCCC)cc1O` [CBD, cannabidiol], the “Onset latency” value [1, 4] was 500 s, the “Seizure free (%)” value [1, 4] was 0% and the “ALL EPISODES Mean severity of episodes” value [1, 5] was “* (* = p < 0.05)”. The “EPISODE 2 Severity” value [1, 5] was “* (* = p < 0.05)”, the “patients who remained unchanged” value (grand mal patients) was 1 and the “patients who showed complete improvement” value (grand mal patients) was 3. For the same compound, the “patients who showed minor improvement” value (grand mal patients) was 2, the “patients who showed partial improvement” value (grand mal patients) was 2 and the unwanted effect (grand mal patients) was “mild sedation”. For the same compound, the “improvement in seizure frequency” value (epileptic patients) was “no significant improvement in seizure frequency” and the seizure frequency [2] was “markedly reduced”.

With `CCC1(c2ccccc2)C(=O)NC(=O)NC1=O` [Phenobarbitol, phenobarbital] the “Onset latency” value [1, 6] was 800 s, the “Seizure free (%)” value [1, 6] was 25% and the “Onset latency” value [1, 7] was 900 s. For the same compound, the “Seizure free (%)” value [1, 7] was 55%, the “Onset latency” value [1, 8] was 1800 s and the “Seizure free (%)” value [1, 8] was 75%.

For `CCCCCc1cc(O)c2c(c1)OC(C)(C)[C@@H]1CCC(C)=C[C@@H]21` [THC, tetrahydrocannabinol], the seizure outcome [3] is given as “One became entirely free of seizures, one became almost completely free of seizures, and the other three did no worse than before”.

With `CCCC(CCC)C(=O)O` [Valproate, valproate] the “ALL EPISODES Mean duration of episodes” value [1, 5] was “* (* = p < 0.05)”, the “ALL EPISODES Mean number of episodes” value [1, 5] was “** (** = p < 0.01)” and the “ALL EPISODES Mean severity of episodes” value [1, 5] was “** (** = p < 0.01)”. For the same compound, the “ALL EPISODES Mean time spent in episodes” value [1, 5] was “* (* = p < 0.05)”, the “ALL EPISODES Percentage episode free” value [1, 5] was “** (** = p < 0.01)” and the “ALL EPISODES Percentage ≥3 episodes” value [1, 5] was “# (# = p < 0.01)”. For the same compound, the “EPISODE 1 Latency” value [1, 5] was “** (** = p < 0.01)”, the “EPISODE 1 Severity” value [1, 5] was “* (* = p < 0.05)” and the “EPISODE 2 Duration” value [1, 5] was “# (# = p < 0.01)”. For the same compound, the “EPISODE 2 Latency” value [1, 5] was “# (# = p < 0.01)”.
